Among the data in US12037345B2, “Heterobicyclic compounds for inhibiting the activity of SHP2” (TAIHO PHARMACEUTICAL CO., LTD., priority 2018, dated 2024) are IC50 values, retold here.

Counter-ions that a name gives are not always drawn.

Assay [1] has as its system pERK (phospho-p44/42 MAPK Thr202/Tyr204) in HCC827 cells. Put plainly: Cellular pERK Inhibition Assay, Method B (PathScan phospho-p44/42 MAPK sandwich ELISA). It is filed as cell-based. The following applies: Homo sapiens, Table 20, read-out: pERK (IC50, μM) Method B. The procedure:
Cellular pERK Inhibition Assay
HCC827 cells (ATCC, Manassas, USA) were seeded into 96-well plates at a density of 1×10^5 cells/well in RPMI medium supplemented with 10% FBS and incubated 24h. Compounds were diluted first in DMSO and then into serum-free medium, before being added to cells in triplicate to give a final concentration of 0.1% DMSO. Plates were incubated at 37° C. for the indicated time in a humidified atmosphere of 5% CO2 in air.
Following compound treatment, medium was removed and cells were lysed by adding 50 μL of lysis buffer (Cell Signalling Technology, Beverly, USA) to each well. Plates were then incubated at room temperature for 25 minutes with shaking. pERK levels were measured in lysates using the PathScan(Registered Trademark) phospho-p44/42 MAPK (Thr202/Tyr204) sandwich ELISA (Cell Signalling Technology, Beverly, USA) as per kit instructions. Briefly, 50 μL of cell lysate was added to 50 μL of ELISA sample diluent in a 96-well ELISA plate and incubated overnight at 4° C. Following washing, 100 μL of detection antibody was added per well and the plates incubated for 1 hour at 37° C. Plates were washed again and incubated at 37° C. for 30 minutes with 100 μl of HRP-linked secondary antibody per well. After final washing, 100 μL per well of TMB substrate was added and plates incubated at 37° C. to develop colour. Colour development was stopped by the addition of 100 μL per well of stop solution. Plates were read at 450 nm on a SpectraMax Gemini reader (Molecular Devices, Uckfield, UK).
The average signal from blank wells (no cells added) was subtracted from the signals from each sample well. Levels of pERK were then expressed as “percent of control”, using DMSO treated samples as control. Dose response curves were generated using GraphPad Prism Version 6 (GraphPad Software, La Jolla, USA) and fitted using the four parameter logistic curve fit.
(In general: ELISA stands for enzyme-linked immunosorbent assay.)

The next assay deals with SHP2 (Homo sapiens (Human), UniProt Q06124). Put plainly: SHP2 Biochemical Assay (DiFMUP conversion, pIRS1-activated). The following applies: Table 20. The method in brief:
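Rates of DiFMU formation were followed 30 min at ex 360/em 450 nm, with 50 μM DiFMUP, 10 pM SHP2 and pIRS1 peptide ([…]) after 30 min compound pre-incubation at pH 7.0 Bis-Tris propane. Four-parameter logistic IC50s in singlicate; repeat runs averaged.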

Sequence of SHP2 (Q06124 whole entry): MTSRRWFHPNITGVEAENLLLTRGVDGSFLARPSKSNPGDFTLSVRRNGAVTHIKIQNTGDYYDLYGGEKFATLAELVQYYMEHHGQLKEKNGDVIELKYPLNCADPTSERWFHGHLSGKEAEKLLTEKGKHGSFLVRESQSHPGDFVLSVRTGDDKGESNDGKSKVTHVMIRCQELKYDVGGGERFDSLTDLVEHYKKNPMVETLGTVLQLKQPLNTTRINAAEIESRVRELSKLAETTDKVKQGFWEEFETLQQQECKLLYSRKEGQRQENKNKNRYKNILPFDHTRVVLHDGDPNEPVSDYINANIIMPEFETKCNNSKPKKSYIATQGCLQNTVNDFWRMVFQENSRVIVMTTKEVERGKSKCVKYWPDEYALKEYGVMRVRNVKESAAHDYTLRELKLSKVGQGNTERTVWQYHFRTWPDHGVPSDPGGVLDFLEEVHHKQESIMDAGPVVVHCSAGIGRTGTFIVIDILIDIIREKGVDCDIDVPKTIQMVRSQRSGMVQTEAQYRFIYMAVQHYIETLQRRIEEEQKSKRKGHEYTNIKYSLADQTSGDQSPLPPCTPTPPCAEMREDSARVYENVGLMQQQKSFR

Turning to `CCn1cc2c(Cl)c(-c3c[nH]c4nc(N5[C@H]6CC[C@@H]5[C@@H](F)[C@@H](N)C6)n(C)c(=O)c34)ccc2n1` [Example 197, 2-[(1R,2S,3S,5S)-3-amino-2-fluoro-8-azabicyclo[3.2.1]octan-8-yl]-5-(4-chloro-2-ethyl-2H-indazol-5-yl)-3-methyl-3H,4H,7H-pyrrolo[2,3-d]pyrimidin-4-one hydrochloride], the IC50 in assay [1] stood at 0.032 µM; on SHP2, 12 nM.
Turning to `CN(C)c1ccc2ccc(-c3c[nH]c4nc(N5[C@H]6CC[C@@H]5[C@H](N)C6)n(C)c(=O)c34)c(Cl)c2n1` [Example 198, 2-[(1R,2R,4S)-2-amino-7-azabicyclo[2.2.1]heptan-7-yl]-5-[8-chloro-2-(dimethylamino)quinolin-7-yl]-3-methyl-3H,4H,7H-pyrrolo[2,3-d]pyrimidin-4-one hydrochloride], the IC50 was found to be 0.066 µM in assay [1] and 13 nM against SHP2.
As for `CNc1ccc2ccc(-c3c[nH]c4nc(N5[C@H]6CC[C@@H]5[C@H](N)C6)n(C)c(=O)c34)c(Cl)c2n1` [Example 199, 2-[(1R,2R,4S)-2-amino-7-azabicyclo[2.2.1]heptan-7-yl]-5-[8-chloro-2-(methylamino)quinolin-7-yl]-3-methyl-3H,4H,7H-pyrrolo[2,3-d]pyrimidin-4-one hydrochloride], the IC50 in assay [1] amounted to 0.11 µM; on SHP2 it was 14 nM.

One may read the IC50 as the concentration needed to halve the response being measured.
